Reference: ChEMBL document CHEMBL1122472, “Anticoccidial activity of 1-phenyluracils” (1983)

Tested on: Eimeria tenella
Assay: Minimum effective concentration (MEC) against Eimeria tenella to prevent infection and to maintain zero lesion scores
Type: functional
Settings: read-out: MEC

Compared with `Cc1cc(-n2ccc(=O)[nH]c2=O)cc(Cl)c1Sc1ccc(Cl)cc1`, `Cc1cc(-n2ccc(=O)[nH]c2=O)cc(C)c1Sc1ccc(Cl)cc1` is 8.3-fold higher in minimal effective concentration: 60 µg/mL for the first, 500 µg/mL for the second.

Going from `Cc1cc(-n2ccc(=O)[nH]c2=O)cc(Cl)c1S(=O)(=O)c1ccc(Cl)cc1` to `O=c1ccn(-c2ccc(Oc3ccc(Cl)cc3)c(Cl)c2)c(=O)[nH]1`, the minimal effective concentration rises from less than 125 µg/mL to greater than 500 µg/mL.

Going from `Cc1cc(C)cc(-n2ccc(=O)[nH]c2=O)c1` to `O=c1ccn(-c2cc(Cl)cc(Cl)c2)c(=O)[nH]1`, the minimal effective concentration falls from greater than 250 µg/mL to 125 µg/mL.
